Data as given in patent US4039674A, “3-(3-Methyl-2-octyl)-1-[4-(1-ho mopiperidine)butyryloxy]-6,6,9-trimethyl-7,8,9,10-tetrahydro-6H-dibenzo [b,d]pyran hydrochloride as an anticonvulsant agent” (Abbott Laboratories, priority 1976, dated 1977).
“Also recorded” adds a separate entry of the source. Counter-ions that a name gives are not always drawn. Like-named read-outs stand apart in the source and are kept apart here.

Legend:
[1] = tested on: all components of audiogenic seizures; experiment: Audiogenic seizure test in mice (complete seizure protection); type: in vivo, male O'Grady strain mice; conditions: single oral dose; for ED50: Mus musculus
Excerpt: (§1) In this test, male O'Grady strain mice (14-16 grams) especially bred for susceptibility to audiogenic seizures were used as subjects. The audiogenic seizure apparatus consisted of a wooden box enclosing a metal container with two doorbells attached to the upper section. The test consisted of administering the test drug orally as a suspension in 10% olive oil and 90% Methocel (0.5%) to ten animals per dose. […] The test drugs included the present compound, DMHP, DPH, Δ^9 -THC and Phenobarbital.
The animals, diluent, apparatus and experimental procedure described in Example 1 above were used for the present test in mice to determine the complete seizure protection of the various compounds. The compounds tested included the present compound, DMHP and Δ^9 -THC.

[2] = tested on: hind limb tonic extension seizure (supramaximal electroshock); experiment: Supramaximal electroshock seizures in rats (single oral dose); type: in vivo, male Long-Evans rats; conditions: for ED50: Rattus norvegicus, rats, single oral dose
Excerpt: In this test, male Long-Evans rats (170-190 grams) were orally administered the test drugs as a suspension in olive oil and Methocel 0.5% to 5 or 10 animals per dose. At one and four hours post drug administration each animal received an electroshock (150 milliamp for 0.2 seconds) through corneal electrodes to produce a hind limb tonic extension seizure. The animals were considered protected when the hind limb tonic extensor component was blocked.

[3] = tested on: hind limb tonic extensor component of the audiogenic seizure; experiment: Audiogenic seizure in mice (tonic extensor component), single oral dose; type: in vivo, male O'Grady strain mice; conditions: for ED50: Mus musculus, po; for activity over time / time of peak effect: single oral dose, 1, 4 and 24 hours
Excerpt: as §1

[4] = tested on: hind limb tonic extensor component of the audiogenic seizure; experiment: Audiogenic seizure test in mice (5-day chronic administration); type: in vivo, male O'Grady strain mice; conditions: for ED50: Mus musculus, fifth day, 4 hr post drug administration, read-out: Five day chronic audiogenic seizure test ED50 4 hr; for ED50 / activity in abolishing hind limb tonic extensor component: mice, oral; for activity in abolishing hind limb tonic extensor component: five consecutive days
Excerpt: as §1
In this test, the animals, diluent and apparatus described in Example 1, above, were used. The experimental procedure consisted of administering the test drugs orally for four days at 0.5 mg./kg. for the present compound and DMHP, and 1.0 and 0.1 mg./kg., respectively, for DPH and phenobarbital. On the fifth day of testing a dose response study (N=10 animals per dose) was initiated to obtain the ED50 for each compound.

[5] = tested on: hind limb tonic extension seizure (supramaximal electroshock); experiment: Supramaximal electroshock test in rats (5-day chronic administration); type: in vivo, male Long-Evans rats; conditions: for ED50: Rattus norvegicus, 5-day oral administration, fifth day, 4 hr post drug administration, read-out: ED50 4 hr (50% of animals protected from hind limb tonic extension)
[6] = Side effects (sedation and irritability) on repeated medication; type: in vivo; conditions: within a few days of medication
[7] = 1 hr, read-out: 1 hr ED50 (50% of animals protected from hindlimb tonic extension)
[8] = 4 hr, read-out: 4 hr ED50 (50% of animals protected from hindlimb tonic extension)
[9] = 1 h, mice, single oral dose, 1 hr post drug administration, read-out: 1 hr ED50 (50% of animals protected from hindlimb tonic extension)
[10] = 4 h, mice, single oral dose, 4 hr post drug administration, read-out: 4 hr ED50 (50% of animals protected from hindlimb tonic extension)
[11] = 24 h, mice, single oral dose, 24 hr post drug administration, read-out: 24 hr ED50 (50% of animals protected from hindlimb tonic extension)
[12] = 5-day oral, 2.5 mg./kg. (present compound, DMHP), 30.0 mg./kg. (DPH)
[13] = 4 hr post drug administration, read-out: Complete seizure protection 4 hr ED50

Structure (SMILES)	ED50 [2, 7] [mg/kg]	ED50 [2, 8] [mg/kg]	ED50 ([2]; 24 hr, read-out: 24 hr ED50) [mg/kg]	ED50 [3, 9] [mg/kg]	ED50 [3, 10] [mg/kg]	ED50 [3, 11] [mg/kg]	activity over time / time of peak effect ([3]; mice)	ED50 [4] [mg/kg]	tolerance to anticonvulsant activity [5, 12]	ED50 [5] [mg/kg]	ED50 [1, 13] [mg/kg]	activity in abolishing hind limb tonic extensor component [4]	further results
CCCCCc1cc(O)c2c(c1)OC(C)(C)C1CCC(C)=CC21 (single isomer, unassigned) [Δ9-THC]	53.3	40.6	> 200	5	38.8	> 100	most active at the one hour period	–	–	–	–	–	ED50 ([1]; 1 h, one hour data, read-out: Complete seizure protection ED50 (one hour data)): 6.5 mg/kg
CCCCCC(C)C(C)c1cc(O)c2c(c1)OC(C)(C)C1=C2CC(C)CC1 (stereo not shown) [DMHP]	4.6	7.5	66.8	6.7	2.9	15.1	active over a prolonged period (24 hours)	1.6	slight tolerance	26.7	6.7	–	–
O=C1NC(=O)C(c2ccccc2)(c2ccccc2)N1 [DPH, diphenylhydantoin]	23	62.2	> 200	1.7	3.3	11	–	< 0.5	–	26.6	–	–	–
CCC1(c2ccccc2)C(=O)NC(=O)NC1=O [Phenobarbital]	22	18	> 40	1.9	0.3	6	peak effect at four hours post drug administration	0.1	–	–	–	very active	–
CCCCCC(C)C(C)c1cc(OC(=O)CCCN2CCCCCC2)c2c(c1)OC(C)(C)C1=C2CC(C)CC1 (stereo not shown) [Present compound, 3-(3-methyl-2-octyl)-1-[4-(1-homopiperidine)butyryloxy]-6,6,9-trimethyl-7,8,9,10-tetrahydro-6H-dibenzo[b,d]pyran hydrochloride]	60.6	7.4	> 150	6.8	1.1	55.9	–	0.7	slight tolerance	37.2	7.8	marked activity in abolishing the hind limb tonic extensor component	retention of anticonvulsant activity on repeated medication ([4]; audiogenic seizure test in mice): retained without any loss of the potency; tolerance to anticonvulsant activity ([5]; daily higher doses such as 5.0 and 10.0 mg./kg.): increase in tolerance; antagonism of preconvulsive running [1]: preconvulsive running was not antagonized; tolerance to side effects of sedation and irritability [6]: marked tolerance develops to the side effects of sedation and irritability within a few days of medication; anti-convulsant activity ([2]; rat supramaximal electroshock test, hydrochloride): potent anti-convulsant activity; also recorded: marked activity in preventing the hind limb tonic extension feature of supramaximal electroshock; ED50 ([3]; daily, general description, read-out: oral ED50 for blocking the tonic extensor component of audiogenic seizures): 1 to 2 mg/kg; 24 hr ED50 (50% of animals protected from hindlimb tonic extension) ([3]; mice, single oral dose, 24 hr post drug administration, hydrochloride, 1440 min): 55.5 mg/kg; anti-convulsant activity ([3]; mouse audiogenic seizure test, hydrochloride): marked activity in antagonizing the hind limb tonic extensor component; also recorded: potent anti-convulsant activity
